One assay has as its system S. aureus (ATCC29213). As to the kind of experiment: In vitro susceptibility, broth microdilution (MIC). It counts as cell-based. To be noted: Staphylococcus aureus; S. aureus ATCC29213; 18-24 h, 37 C; read-out: Antimicrobial activity (MIC) S. aureus ATCC29213. The method, boiled down: (§1)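 CLSI 2-fold serial broth microdilution; K. pneumoniae C238 grown in L-broth, S. aureus ATCC 29213 in Mueller Hinton broth, plates incubated 18–24 h at 37 °C. MIC taken as lowest concentration giving complete growth inhibition by OD600 versus compound-free wells, background-subtracted.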

Assay [1] has as its system A. baumannii (ATCC 17978). In words: In vitro susceptibility, broth microdilution (MIC). It counts as cell-based. To be noted: Acinetobacter baumannii, ATCC17978; A. baumannii ATCC 17978 (values marked *); read-out: Antimicrobial activity (MIC) A. baumannii. The method, boiled down: (§2)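 MIC determined by CLSI 2-fold broth microdilution in cation-adjusted Mueller–Hinton broth at ~2.5×10^5 CFU/ml, final compound 0.031–64 μg/ml, 18–24 h at 37 °C. MIC is the lowest concentration giving complete growth inhibition by background-corrected OD600 versus compound-free wells; duplicate or triplicate wells, replicated at least twice.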

The next assay has as its system VRE#2 (2010A). As to the kind of experiment: In vitro susceptibility, broth microdilution (MIC). To be noted: VRE#2 (2010A); read-out: Antimicrobial activity (MIC) VRE#2. It counts as cell-based, vancomycin resistant Enterococci. In short, it runs like this:
as §2

Another assay deals with T1, MRSA Pyk (Staphylococcus aureus, UniProt Q6GG09).
T1 construct: made in house; host or cells: E. coli BL-21 (DE3)
In words: MRSA pyruvate kinase (PK) activity, continuous LDH-coupled assay. The assay is classed as biochemical, methicillin resistant S. aureus (MRSA252). In short, it runs like this:
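Activity monitored continuously as absorbance change at 340 nm from NADH oxidation via coupled lactate dehydrogenase, reactions started with 15 nM recombinant His-tagged PK (MRSA or human isoform) and run at 30° C for up to 5 min. Ki derived by varying inhibitor (0-400 nM) and PEP (2-20 mM) at 2 mM ADP; IC50 by four-parameter fitting.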

A further assay relates to MRSA (ATCC BAA-1762). In words: In vitro susceptibility, broth microdilution (MIC). It counts as cell-based, methicillin resistant S. aureus. The following applies: Staphylococcus aureus; MRSA ATCC BAA-1762; read-out: Antimicrobial activity (MIC) MRSA ATCC BAA1762. In short, it runs like this: as §2
The next assay relates to K. pneumoniae (C238). As to the kind of experiment: In vitro susceptibility, broth microdilution (MIC). It counts as cell-based. To be noted: Klebsiella pneumoniae; K. pneumoniae (C238); read-out: Antimicrobial activity (MIC) K. pneumoniae. In short, it runs like this:
as §1

≈ marks a conversion by molar mass, not a printed value.

T1 sequence (Q6GG09 whole entry): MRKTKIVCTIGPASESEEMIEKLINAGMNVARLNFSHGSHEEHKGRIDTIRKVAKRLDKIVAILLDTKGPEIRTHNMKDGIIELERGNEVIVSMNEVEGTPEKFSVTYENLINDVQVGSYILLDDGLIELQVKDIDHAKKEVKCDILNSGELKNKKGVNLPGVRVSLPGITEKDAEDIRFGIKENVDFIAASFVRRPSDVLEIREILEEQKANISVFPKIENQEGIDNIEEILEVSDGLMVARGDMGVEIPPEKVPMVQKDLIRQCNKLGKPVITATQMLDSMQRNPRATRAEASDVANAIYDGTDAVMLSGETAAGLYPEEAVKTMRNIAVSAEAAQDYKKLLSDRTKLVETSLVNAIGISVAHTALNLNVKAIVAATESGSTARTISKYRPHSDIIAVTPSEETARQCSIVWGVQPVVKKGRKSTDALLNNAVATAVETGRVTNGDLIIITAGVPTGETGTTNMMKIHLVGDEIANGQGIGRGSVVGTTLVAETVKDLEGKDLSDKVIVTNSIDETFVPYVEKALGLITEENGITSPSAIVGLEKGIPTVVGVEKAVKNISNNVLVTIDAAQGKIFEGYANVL

In the case of `O=C(COc1cc2[nH]c(-c3cc4ccc(Br)cc4[nH]3)cc2cc1Cl)NCCC[n+]1ccccc1` [Compound 190, 1-(3-(2-((6′-Bromo-5-chloro-1H,1′H-[2,2′-biindol]-6-yl)oxy)acetamido)propyl)pyridin-1-ium Acetate], the MIC with S. aureus (ATCC29213) is 8 µg/mL; in assay [1] it was above 64 µg/mL; with VRE#2 (2010A), 16 µg/mL; with MRSA (ATCC BAA-1762) it was 8 µg/mL. The IC50 at MRSA Pyk is below 100 nM.
Turning to `O=C(COc1cc2[nH]c(-c3cc4ccc(Br)cc4[nH]3)cc2cc1Cl)NS(=O)(=O)c1ccc(NC(=O)C(F)(F)F)cc1` [Compound 195, N-(4-(N-(2-((6′-Bromo-5-chloro-1H, 1′H-[2,2′-biindol]-6-yl)oxy)acetyl)sulfamoyl)phenyl)-2,2,2-trifluoroacetamide], the MIC with S. aureus (ATCC29213) is 64 µg/mL (≈ 95.5 µM); in assay [1], above 64 µg/mL; in the assay on MRSA (ATCC BAA-1762) it was 64 µg/mL (≈ 95.5 µM). The IC50 on MRSA Pyk is below 100 nM.
Regarding `CN(C)c1cc[n+](CCCNC(=O)c2c(-c3cc4cc(Cl)ccc4[nH]3)[nH]c3cc(Br)ccc23)cc1` [Compound 145, 1-(3-(6-bromo-5′-chloro-1H, 1′H-[2,2′-biindole]-3-carboxamido)propyl)-4-(dimethylamino)pyridin-1-ium], the MIC in the assay on S. aureus (ATCC29213) is 8 µg/mL; in assay [1] it was above 64 µg/mL; in the assay on VRE#2 (2010A) it was 16 µg/mL; in the assay with MRSA (ATCC BAA-1762), 16 µg/mL. On MRSA Pyk, this compound gave an IC50 below 100 nM.
In the case of `CN(C)CCc1c(-c2nc3cc(Cl)c(Cl)cc3[nH]2)[nH]c2cc(Br)ccc12` [Compound 202, 2-(6-Bromo-2-(5,6-dichloro-1H-benzo[d]imidazol-2-yl)-1H-indol-3-yl)-N,N-dimethylethan-1-amine], the MIC with S. aureus (ATCC29213) is 4 µg/mL (≈ 8.85 µM); in assay [1], above 64 µg/mL; in the assay on VRE#2 (2010A) it was 4 µg/mL (≈ 8.85 µM); in the assay with MRSA (ATCC BAA-1762), 4 µg/mL (≈ 8.85 µM). The same compound came in with an IC50 at MRSA Pyk below 100 nM.
As to `C[N+](C)(C)CCCNC(=O)c1c(-c2cc3cc(Cl)ccc3[nH]2)[nH]c2cc(Br)ccc12` [Compound 147, 3-(6-bromo-5′-chloro-1H,1′H-[2,2′-biindole]-3-carboxamido)-N,N,N-trimethylpropan-1-aminium], the MIC with S. aureus (ATCC29213) is 16 µg/mL; in assay [1] it was above 64 µg/mL; with VRE#2 (2010A) it was 16 µg/mL; with MRSA (ATCC BAA-1762), 16 µg/mL. On MRSA Pyk, this compound gave an IC50 below 100 nM.
`Clc1ccc(-c2cc3[nH]c4cc(Br)ccc4c3nc2-c2ccccc2)cc1` [Compound 112, 7-bromo-3-(4-chlorophenyl)-2-phenyl-5H-pyrido[3,2-b]indole]: the MIC with S. aureus (ATCC29213) was 32 µg/mL (≈ 73.8 µM); in the assay with K. pneumoniae (C238) it was above 64 µg/mL; in assay [1] it was above 64 µg/mL; in the assay with VRE#2 (2010A), above 64 µg/mL. In addition, the IC50 against MRSA Pyk was in the range of 100 to 1000 nM.
Regarding `O=C(NCCC[n+]1ccc2ccccc2c1)c1c(-c2cc3cc(Cl)ccc3[nH]2)[nH]c2cc(Br)ccc12` [Compound 146, 2-(3-(6-bromo-5′-chloro-1H,1′H-[2,2′-biindole]-3-carboxamido)propyl)isoquinolin-2-ium], the MIC in the assay on S. aureus (ATCC29213) is 32 µg/mL; in assay [1], above 64 µg/mL; in the assay with VRE#2 (2010A), 64 µg/mL; in the assay on MRSA (ATCC BAA-1762) it was 32 µg/mL. Moreover, the IC50 on MRSA Pyk was below 100 nM.
With `CN1CCN(CCNC(=O)c2c(-c3cc4cc(Cl)ccc4[nH]3)[nH]c3cc(Br)ccc23)CC1` [Compound 72, 6-Bromo-5′-chloro-N-(2-(4-methylpiperazin-1-yl)ethyl)-1H,1′H-[2,2′-biindole]-3-carboxamide], the MIC with S. aureus (ATCC29213) is 8 µg/mL (≈ 15.5 µM); with K. pneumoniae (C238), 8 µg/mL (≈ 15.5 µM); in assay [1] it was above 64 µg/mL; in the assay on VRE#2 (2010A), 8 µg/mL (≈ 15.5 µM). At MRSA Pyk, this compound registered an IC50 below 100 nM.
Consider `COCC(=O)N1CCCN(CCNC(=O)c2c(-c3cc4cc(Cl)ccc4[nH]3)[nH]c3cc(Br)ccc23)CC1` [Compound 121, 6-Bromo-5′-chloro-N-(2-(4-(2-methoxyacetyl)-1,4-diazepan-1-yl)ethyl)-1H,1′H-[2,2′-biindole]-3-carboxamide], for which the MIC (in the assay on S. aureus (ATCC29213); in assay [1]) was above 64 µg/mL in each case. For the same compound, at MRSA Pyk, the IC50 is below 100 nM.
Take `O=C(O)CNC(=O)c1c(-c2cc3cc(Cl)ccc3[nH]2)[nH]c2cc(Br)ccc12` [Compound 204, (6-Bromo-5′-chloro-1H,1′H-[2,2′-biindole]-3-carbonyl)glycine]: the MIC in the assay on S. aureus (ATCC29213) is 64 µg/mL (≈ 143 µM); in assay [1], above 64 µg/mL. At MRSA Pyk, the IC50 was below 100 nM.
Consider `O=C(NCCN1CCC[C@H]1C(=O)O)c1c(-c2cc3cc(Cl)ccc3[nH]2)[nH]c2cc(Br)ccc12` [Compound 125, (2-(6-Bromo-5′-chloro-1H,1′H-[2,2′-biindole]-3-carboxamido)ethyl)-L-proline], for which the MIC (in the assay on S. aureus (ATCC29213); in assay [1]) was above 64 µg/mL each time. At MRSA Pyk, this compound yielded an IC50 below 100 nM.
Take `O=C(NCc1ccccc1)Nc1nc2cc(Br)ccc2s1` [Compound 158, 1-benzyl-3-(5-bromobenzo[d]thiazol-2-yl)urea]: the MIC was 2 µg/mL (≈ 5.52 µM) in the assay on S. aureus (ATCC29213), above 64 µg/mL in assay [1], 2 µg/mL (≈ 5.52 µM) with VRE#2 (2010A) and 1 µg/mL (≈ 2.76 µM) with MRSA (ATCC BAA-1762).
On to `Clc1ccc2[nH]c(-c3cc4ccc(Br)cc4[nH]3)nc2n1` [Compound 208, 2-(6-Bromo-1H-indol-2-yl)-5-chloro-1H-imidazo[4,5-b]pyridine], for which the minimum inhibitory concentration (MIC) was 8 µg/mL (≈ 23 µM) in the assay on S. aureus (ATCC29213), above 64 µg/mL in assay [1], 16 µg/mL (≈ 46 µM) in the assay on VRE#2 (2010A) and 8 µg/mL (≈ 23 µM) in the assay on MRSA (ATCC BAA-1762). The same compound registered an IC50 against MRSA Pyk above 1000 nM.
Turning to `O=C1CN(CCNC(=O)c2c(-c3cc4cc(Cl)ccc4[nH]3)[nH]c3cc(Br)ccc23)CCN1` [Compound 127, 6-bromo-5′-chloro-N-(2-(3-oxopiperazin-1-yl)ethyl)-1H,1′H-2,2′-biindole-3-carboxamide], the MIC (in the assay on S. aureus (ATCC29213); in assay [1]) was above 64 µg/mL in each case. Moreover, the IC50 against MRSA Pyk is below 100 nM.
For `COC(=O)COc1cc2[nH]c(-c3cc4ccc(Br)cc4[nH]3)cc2cc1Cl` [Compound 188, Methyl 2-((6′-bromo-5-chloro-1H,1′H-[2,2′-biindol]-6-yl)oxy)acetate], the MIC (in the assay with S. aureus (ATCC29213); in assay [1]) was above 64 µg/mL throughout. This compound registered an IC50 on MRSA Pyk below 100 nM.
In the case of `O=C(Nc1ccc(Cl)c(C(F)(F)F)c1)Nc1nc2cc(Br)ccc2s1` [Compound 156, 1-(5-bromobenzo[d]thiazol-2-yl)-3-(4-chloro-3-(trifluoromethyl)phenyl)urea], the MIC turned out to be 0.5 µg/mL (≈ 1.11 µM) with S. aureus (ATCC29213), 64 µg/mL (≈ 142 µM) in assay [1], 1 µg/mL (≈ 2.22 µM) with VRE#2 (2010A) and 1 µg/mL (≈ 2.22 µM) in the assay on MRSA (ATCC BAA-1762).
For `CC(C)[C@@H](C(=O)OCCCNC(=O)c1c(-c2cc3cc(Cl)ccc3[nH]2)[nH]c2cc(Br)ccc12)N(C)C` [Compound 185, 3-(6-Bromo-5′-chloro-1H,1′H-[2,2′-biindole]-3-carboxamido)propyl Dimethyl-L-valinate], the MIC (in the assay with S. aureus (ATCC29213); in assay [1]) was above 64 µg/mL in each case. The compound also showed an IC50 on MRSA Pyk below 100 nM.
As to `COc1ccc(NC(=O)Nc2nc3cc(Br)ccc3s2)cc1` [Compound 152, 1-(5-bromobenzo[d]thiazol-2-yl)-3-(4-methoxyphenyl)urea], the MIC is 1 µg/mL (≈ 2.64 µM) in the assay on S. aureus (ATCC29213), above 64 µg/mL in assay [1], 2 µg/mL (≈ 5.29 µM) in the assay on VRE#2 (2010A) and 1 µg/mL (≈ 2.64 µM) in the assay with MRSA (ATCC BAA-1762).
`O=C(Nc1ccc(Cl)c(Cl)c1)Nc1nc2cc(Br)ccc2s1` [Compound 155, 1-(5-bromobenzo[d]thiazol-2-yl)-3-(3,4-dichlorophenyl)urea]: the MIC in the assay on S. aureus (ATCC29213) was 0.5 µg/mL (≈ 1.2 µM); in assay [1], above 64 µg/mL; in the assay with VRE#2 (2010A), 0.5 µg/mL (≈ 1.2 µM); in the assay on MRSA (ATCC BAA-1762), 0.5 µg/mL (≈ 1.2 µM).

Values taken from patent US20180312493A1, “Antibiotic Compounds, Pharmaceutical Formulations Thereof And Methods And Uses Therefor” (Simon Fraser University, priority 2015, published 2018).
